We go through 1 compound from publication PMC7377239, “Cardiovascular Effects of Polychlorinated Biphenyls and Their Major Metabolites” (Environmental Health Perspectives, 2020).

Where a name gives a salt, the structure may show the parent alone. Read-outs that look alike come from different tables or passages of the source.

Assay [1] relates to iCell endothelial cells (human iPSC-derived ECs). Nature of the assay: Tube formation (tubulogenesis) assay in iCell endothelial cells, 18 h. In kind it is cell-based. Particulars: Homo sapiens, Endothelial cell, endothelial cells (endo), 18 hr. As for the experimental part:
The culture conditions of iCell®-endothelial cells were as reported elsewhere ([Iwata et al. 2017]). Briefly, T75 flasks were coated with a fibronectin solution ( 3 μg/cm^2 ) followed by incubation for 1–2 h. Cells were thawed for 3 min in a 37°C water bath. Thawed cells were added to maintenance medium made of VascuLife VEGF Medium Complete Kit, excluding the supplied FBS, and iCell® Endothelial Cells Medium Supplement. The final formulation of the maintenance medium is detailed in ([Iwata et al. 2017]). The aliquoted fibronectin solution was aspirated from the T75 flasks, and cells were seeded at 1.0×10^4 cells/cm^2 . Cells were maintained at 37°C and 5% CO2 with media changes occurring every 2 d and passaged every 3–4 d using TrypLE™ Express. All experiments were conducted on cells between passages 1 and 5.
Tube formation assays were performed on Geltrex™ LDEV-free reduced growth factor basement membrane using both iCell®-endothelial cells and HUVECs in 384-well format exactly as detailed in Iwata et al. ([2017]). Negative controls included media-only and vehicle control (i.e., 0.5% vol/vol DMSO in cell culture media) wells. Positive assay controls were consistent with previously published reports ([Iwata et al. 2017]) and included TAB ( 50μM ) as a cytotoxic control, and nocodazole ( 0.01–1μM ), suramin ( 0.5–50μM ), histamine ( 0.1–100μM ), and chloroquine ( 1–500μM ) as chemicals associated with specific effects on ECs. Each test chemical was screened in triplicate for each concentration. Briefly, for iCell®-endothelial cells, starvation media consisted of VascuLife® basal medium with 4 mM L-glutamine LifeFactor and 0.1% iCell®-endothelial cells medium supplement. To counter dilution effects, a 2× concentration of the HUVEC maintenance medium supplemented with additional VEGF was created (EGM™-2 BulletKits™ at 2× concentration; also the VEGF component was replaced with 12.5 ng/mL VEGF). Geltrex™ LDEV-free reduced growth factor basement membrane was thawed overnight and dispensed into 384-well plates ( 10μL/well ) with tapping and rotating to evenly coat. The plates were incubated for 1 h in a cell culture incubator at 37°C and 5% CO2 . A 2× PCB plate (containing all of the PCBs and metabolites in dose–response) was prepared in basal media and added, 25μL per well, to the Geltrex™ coated plates. On separate plates, cells were seeded 7,500 (iPSC- ECs) or 3,500 (HUVEC) cells/well. Cells were exposed to chemicals overnight at 37°C and 5% CO2 and stained with 3× concentration of calcein AM ( 25μL /well, 6μmol/L ) for 15 min before imaging. Images were captured at 4× magnification with the FITC filter (calcein AM). Images were analyzed with the angiogenesis module software within MetaXpress™ (Molecular Devices).
(§1) Phenotypic responses were quantitatively assessed using concentration–response modeling as detailed elsewhere ([Sirenko et al. 2017]). Briefly, phenotypic readouts were normalized to vehicle controls and fit to a four-parameter logistic model in R studio software (version 3.1.1; R Development Core Team). Following EPA guidance on dose–response modeling, a cutoff of one standard deviation across means of vehicle control (i.e., 0.5% vol/vol DMSO in cell culture media) wells was applied to determine the point-of-departure (POD) values ([U.S. EPA 2012]). In the absence of a concentration–response, the highest tested concentration (i.e., 100μM ) was assigned as “no observable adverse effect level.” The concentration–response assessment R script, as well as templates for vehicle and concentration–response data, are available as a supplement to Sirenko et al. ([2017]). The ability of physicochemical properties to predict differences in PODs were evaluated by multiregression and mixed-effects modeling using R.

In a further assay the test system is HUVECs. Nature of the assay: High-content imaging cytotoxicity in HUVECs, 24 h. Particulars: Homo sapiens, HUVEC, 24 h, HUVEC, 24 hr. In kind it is cell-based, human. The method, then:
Similar to the cultivation of iCell®-endothelial cells, HUVEC maintenance and experimentation are detailed elsewhere ([Iwata et al. 2017]). Briefly, HUVECs were thawed, seeded, and grown in T75 tissue culture flasks in Medium 199 with EGM™-2 BulletKits™. HUVECs were incubated at regular cell culture conditions, 37°C and 5% CO2 , and passaged every 2–3 d using TrypLE™ Express. To ensure adequate endothelial function, experiments were performed with cells between passages 1 and 5.
Cytotoxicity was assessed in parallel experiments. For iCell®-endothelial cells, 384-well plates were coated with a 30μg/mL fibronectin solution ( 10μL/well ) and incubated for 2 h at RT. iCell®-endothelial cells were dissociated with TrypLE™ Express and prepared into a solution to achieve 750 cells per well and 50μL of total volume. The fibronectin solution was removed from the 384-well plate, and cells were plated. For HUVECs, similar dissociation and the same cell density were used for plating with the exclusion of the fibronectin solution. Cells were incubated at 37°C and 5% CO2 until a monolayer was formed, typically 3–5 d. 2×PCB plates were created with the requisite maintenance medium. Before treatment, the medium in the wells was exchanged to 25μL/well of fresh maintenance medium. 2×PCB chemical solutions ( […] ) were added. After 24 h incubation at 37°C and 5% CO2 , cells were stained with Hoechst 33342, MitoTracker™ Orange, and calcein AM for 20 min before replacing the staining media with FluoroBright DMEM. Cell culture plates were imaged using the ImageXpress® Micro Confocal high-content imaging system (Molecular Devices). Images were acquired at 10× magnification with DAPI, TRITC, or FITC filter (Hoechst 33342, MitoTracker™, or calcein AM, respectively). The multiwavelength cell scoring applications module in MetaXpress™ (Molecular Devices) was used to analyze the images.
as §1

Turning to `O=S(=O)(O)Oc1ccc(-c2cccc(Cl)c2)cc1Cl` [4-PCB 11 sulfate], the minimal effective concentration in assay [1] (tube formation mtl, read-out: POD endo.mtl.18hr) stood at 25.3 µM; in assay [1] (tube formation tlps, read-out: POD endo.tlps.18hr) it was 12.7 µM; in assay [1] (tube formation tta, read-out: POD endo.tta.18hr), 21 µM; in assay [1] (tube formation ttl, read-out: POD endo.ttl.18hr), 25.6 µM; with HUVECs (cyto, read-out: POD huvec.cyto.24hr), 48.8 µM; with HUVECs (mito, read-out: POD huvec.mito.24hr), 45.1 µM. Besides, the minimal effective concentration with HUVECs (mitoint, read-out: POD huvec.mitoint.24hr) is 10.8 µM; in the assay with HUVECs (nma, read-out: POD huvec.nma.24hr), 2.98 µM; in the assay with HUVECs (tc, read-out: POD huvec.tc.24hr), 48.8 µM.
